Assay results reported in patent publication US12673961B2 (Agios Pharmaceuticals, Inc., priority 2022, dated 2026).
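Note: Ten-point dose curve from 2-fold serial dilutions, run in duplicate at 0.5% DMSO final, tracer step used 20 µM sepiapterin and 800 µM labeled phenylalanine.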

The molecules below were run against T1, human PAH with the R408W mutation (Homo sapiens, UniProt P00439, R408W) (assay: Cell Based Phenylalanine Flux Assay). Conditions: A375 cells expressing human R408W PAH; 24 hrs with compound, then sepiapterin and 13C9,15N-Phenylalanine for 4 hours; 13C-Tyrosine by LC-MS; average where tested multiple times; read-out: AC50.
T1 construct: expressed in transfected cells
T1 sequence (P00439 1-452 R408W): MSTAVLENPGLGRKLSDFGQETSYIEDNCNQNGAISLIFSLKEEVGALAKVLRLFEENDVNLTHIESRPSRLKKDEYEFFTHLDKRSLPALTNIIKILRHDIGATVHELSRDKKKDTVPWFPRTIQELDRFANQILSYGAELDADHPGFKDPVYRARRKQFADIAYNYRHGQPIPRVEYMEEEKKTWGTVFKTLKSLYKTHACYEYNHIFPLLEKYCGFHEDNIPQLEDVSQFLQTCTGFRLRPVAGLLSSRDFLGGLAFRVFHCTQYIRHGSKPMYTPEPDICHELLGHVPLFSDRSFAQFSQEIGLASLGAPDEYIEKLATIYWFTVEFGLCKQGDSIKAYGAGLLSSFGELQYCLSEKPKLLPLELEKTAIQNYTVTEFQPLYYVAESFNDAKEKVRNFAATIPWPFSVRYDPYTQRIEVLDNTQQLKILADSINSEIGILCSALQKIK
With `O=C(c1cnn2cc(-c3ccccn3)ccc12)N1CCc2[nH]cnc2[C@H]1c1cc2ccccn2n1` [Example 1416, (S)-(4-(pyrazolo[1,5-a]pyridin-2-yl)-6,7-dihydro-1H-imidazo[4,5-c]pyridin-5(4H)-yl)(6-(pyridin-2-yl)pyrazolo[1,5-a]pyridin-3-yl)methanone] the AC50 was under 0.5 µM. For `CC(C)(C)c1nnc(C(=O)N2CCc3[nH]cnc3[C@H]2c2cc3cccc(C(F)F)n3n2)o1` [Example 1419, (S)-(5-(tert-butyl)-1,3,4-oxadiazol-2-yl)(4-(7-(difluoromethyl)pyrazolo [1,5-a]pyridin-2-yl)-6,7-dihydro-1H-imidazo[4,5-c]pyridin-5(4H)-yl)methanone], the AC50 was 0.5 to 1 µM. Molecule `O=C(c1nnc(-c2ccccn2)o1)N1CCc2[nH]cnc2[C@@H]1c1cc2cccc(C(F)F)n2n1` [Example 1420, (R)-(4-(7-(difluoromethyl)pyrazolo[1,5-a]pyridin-2-yl)-6,7-dihydro-1H-imidazo [4,5-c]pyridin-5(4H)-yl)(5-(pyridin-2-yl)-1,3,4-oxadiazol-2-yl)methanone] has an AC50 of over 5 µM. `O=C(c1nnc(-c2cccnc2)o1)N1CCc2[nH]cnc2[C@@H]1c1cc2c(C(F)F)cccn2n1` [Example 1423, (R)-(4-(4-(difluoromethyl)pyrazolo[1,5-a]pyridin-2-yl)-6,7-dihydro-1H-imidazo [4,5-c]pyridin-5(4H)-yl)(5-(pyridin-3-yl)-1,3,4-oxadiazol-2-yl)methanone] gave an AC50 of over 5 µM. In the case of `COc1ccc(-c2nnc(C(=O)N3CCc4[nH]cnc4[C@H]3c3cc4c(C(F)F)cccn4n3)o2)nc1` [Example 1424, (S)-(4-(4-(difluoromethyl)pyrazolo[1,5-a]pyridin-2-yl)-6,7-dihydro-1H-imidazo [4,5-c]pyridin-5(4H)-yl)(5-(5-methoxypyridin-2-yl)-1,3,4-oxadiazol-2-yl)methanone], the AC50 is reported as under 0.5 µM. `Cc1cccc(-c2nnc(C(=O)N3CCc4[nH]cnc4[C@@H]3c3cc4c(C)cccn4n3)o2)n1` [Example 1428, (R)-(4-(4-methylpyrazolo [1,5-a]pyridin-2-yl)-6,7-dihydro-1H-imidazo[4,5-c]pyridin-5(4H)-yl)(5-(6-methylpyridin-2-yl)-1,3,4-oxadiazol-2-yl)methanone] gave an AC50 of over 5 µM. Molecule `Cc1cccc(-c2nnc(C(=O)N3CCc4[nH]cnc4[C@H]3c3cc4c(C)cccn4n3)o2)n1` [Example 1429, (S)-(4-(4-methylpyrazolo [1,5-a]pyridin-2-yl)-6,7-dihydro-1H-imidazo[4,5-c]pyridin-5(4H)-yl)(5-(6-methylpyridin-2-yl)-1,3,4-oxadiazol-2-yl)methanone] has an AC50 of under 0.5 µM. Work on `Cc1cccc(-c2nnc(C(=O)N3CCc4[nH]cnc4[C@H]3c3cc4c(Cl)cccn4n3)o2)n1` [Example 1431, (S)-(4-(4-chloropyrazolo [1,5-a]pyridin-2-yl)-6,7-dihydro-1H-imidazo[4,5-c]pyridin-5(4H)-yl)(5-(6-methylpyridin-2-yl)-1,3,4-oxadiazol-2-yl)methanone] yielded an AC50 of under 0.5 µM. For `Cc1cccc(-c2nnc(C(=O)N3CCc4[nH]cnc4[C@H]3c3cc4c(C(F)(F)F)cccn4n3)o2)n1` [Example 1433, (S)-(5-(6-methylpyridin-2-yl)-1,3,4-oxadiazol-2-yl)(4-(4-(trifluoromethyl)pyrazolo [1,5-a]pyridin-2-yl)-6,7-dihydro-1H-imidazo[4,5-c]pyridin-5(4H)-yl)methanone], the AC50 was under 0.5 µM. `Cn1ccc(-c2ccc3c(C(=O)N4CCc5[nH]cnc5[C@H]4c4cc5ccccn5n4)cnn3c2)n1` [Example 1434, (S)-(6-(1-methyl-1H-pyrazol-3-yl)pyrazolo[1,5-a]pyridin-3-yl)(4-(pyrazolo [1,5-a]pyridin-2-yl)-6,7-dihydro-1H-imidazo[4,5-c]pyridin-5(4H)-yl)methanone] gave an AC50 of 0.5 to 1 µM. `Cn1ccc(-c2ccc3c(C(=O)N4CCc5[nH]cnc5[C@@H]4c4cc5ccccn5n4)cnn3c2)n1` [Example 1435, (R)-(6-(1-methyl-1H-pyrazol-3-yl)pyrazolo[1,5-a]pyridin-3-yl)(4-(pyrazolo [1,5-a]pyridin-2-yl)-6,7-dihydro-1H-imidazo[4,5-c]pyridin-5(4H)-yl)methanone] was tested, and the AC50 was 1 to 5 µM. With `CC(C)(F)c1nnc(C(=O)N2CCc3[nH]cnc3[C@H]2c2cc3cccc(C(F)F)n3n2)o1` [Example 1436, (S)-(4-(7-(difluoromethyl)pyrazolo[1,5-a]pyridin-2-yl)-6,7-dihydro-1H-imidazo[4,5-c]pyridin-5(4H)-yl)(5-(2-fluoropropan-2-yl)-1,3,4-oxadiazol-2-yl)methanone] the AC50 was 0.5 to 1 µM. `CC(C)(F)c1nnc(C(=O)N2CCc3[nH]cnc3[C@@H]2c2cc3cccc(C(F)F)n3n2)o1` [Example 1437, (R)-(4-(7-(difluoromethyl)pyrazolo[1,5-a]pyridin-2-yl)-6,7-dihydro-1H-imidazo[4,5-c]pyridin-5(4H)-yl)(5-(2-fluoropropan-2-yl)-1,3,4-oxadiazol-2-yl)methanone] showed an AC50 of 1 to 5 µM. In the case of `O=C(c1nnc(-c2ccn(C(F)F)n2)o1)N1CCc2[nH]cnc2[C@@H]1c1cc2cccc(C(F)F)n2n1` [Example 1443, (R)-(5-(1-(difluoromethyl)-1H-pyrazol-3-yl)-1,3,4-oxadiazol-2-yl)(4-(7-(difluoromethyl)pyrazolo[1,5-a]pyridin-2-yl)-6,7-dihydro-1H-imidazo[4,5-c]pyridin-5(4H)-yl)methanone], the AC50 is reported as 1 to 5 µM. Molecule `Cc1cccc2cc([C@@H]3c4nc[nH]c4CCN3C(=O)c3nnc(-c4cnn(C(F)(F)F)c4)o3)nn12` [Example 1446, (S)-(4-(7-methylpyrazolo [1,5-a]pyridin-2-yl)-6,7-dihydro-1H-imidazo[4,5-c]pyridin-5(4H)-yl)(5-(1-(trifluoromethyl)-1H-pyrazol-4-yl)-1,3,4-oxadiazol-2-yl)methanone] has an AC50 of 0.5 to 1 µM. For `CC(C)c1nnc(C(=O)N2CCc3[nH]cnc3[C@@H]2c2cc3c(F)cccn3n2)o1` [Example 1453, (R)-(4-(4-fluoropyrazolo [1,5-a]pyridin-2-yl)-6,7-dihydro-1H-imidazo[4,5-c]pyridin-5(4H)-yl)(5-isopropyl-1,3,4-oxadiazol-2-yl)methanone], the AC50 was over 5 µM. Molecule `Cc1nn(C)cc1-c1nnc(C(=O)N2CCc3[nH]cnc3[C@H]2c2cc3c(C(F)F)cccn3n2)o1` [Example 1466, (S)-(4-(4-(difluoromethyl)pyrazolo[1,5-a]pyridin-2-yl)-6,7-dihydro-1H-imidazo[4,5-c]pyridin-5(4H)-yl)(5-(1,3-dimethyl-1H-pyrazol-4-yl)-1,3,4-oxadiazol-2-yl)methanone] has an AC50 of under 0.5 µM. `Cc1cccc(-c2nnc(C(=O)N3CCc4[nH]cnc4[C@@H]3c3cc4c(F)cccn4n3)o2)n1` [Example 1471, (R)-(4-(4-fluoropyrazolo [1,5-a]pyridin-2-yl)-6,7-dihydro-1H-imidazo[4,5-c]pyridin-5(4H)-yl)(5-(6-methylpyridin-2-yl)-1,3,4-oxadiazol-2-yl)methanone] gave an AC50 of 1 to 5 µM. Molecule `O=C(c1nnc(-c2ccn(C(F)(F)F)n2)o1)N1CCc2[nH]cnc2[C@H]1c1cc2c(Cl)cccn2n1` [Example 1476, (S)-(4-(4-chloropyrazolo [1,5-a]pyridin-2-yl)-6,7-dihydro-1H-imidazo[4,5-c]pyridin-5(4H)-yl)(5-(1-(trifluoromethyl)-1H-pyrazol-3-yl)-1,3,4-oxadiazol-2-yl)methanone] has an AC50 of under 0.5 µM. `Cc1cccn2nc([C@H]3c4nc[nH]c4CCN3C(=O)c3nnc(-c4ccn(C(F)(F)F)n4)o3)cc12` [Example 1479, (R)-(4-(4-methylpyrazolo [1,5-a]pyridin-2-yl)-6,7-dihydro-1H-imidazo[4,5-c]pyridin-5(4H)-yl)(5-(1-(trifluoromethyl)-1H-pyrazol-3-yl)-1,3,4-oxadiazol-2-yl)methanone] showed an AC50 of 1 to 5 µM. `O=C(c1nnc(-c2ccn(C(F)(F)F)n2)o1)N1CCc2[nH]cnc2[C@H]1c1cc2c(F)cccn2n1` [Example 1482, (S)-(4-(4-fluoropyrazolo[1,5-a]pyridin-2-yl)-6,7-dihydro-1H-imidazo[4,5-c]pyridin-5(4H)-yl)(5-(1-(trifluoromethyl)-1H-pyrazol-3-yl)-1,3,4-oxadiazol-2-yl)methanone] showed an AC50 of under 0.5 µM. `O=C(c1nnc(-c2ccn(C(F)(F)F)n2)o1)N1CCc2[nH]cnc2[C@@H]1c1cc2c(F)cccn2n1` [Example 1483, (R)-(4-(4-fluoropyrazolo [1,5-a]pyridin-2-yl)-6,7-dihydro-1H-imidazo[4,5-c]pyridin-5(4H)-yl)(5-(1-(trifluoromethyl)-1H-pyrazol-3-yl)-1,3,4-oxadiazol-2-yl)methanone] showed an AC50 of 1 to 5 µM. For `CC(C)c1nnc(C(=O)N2CCc3[nH]cnc3[C@H]2c2cc3c(Cl)cccn3n2)o1` [Example 1484, (S)-(4-(4-chloropyrazolo [1,5-a]pyridin-2-yl)-6,7-dihydro-1H-imidazo[4,5-c]pyridin-5(4H)-yl)(5-isopropyl-1,3,4-oxadiazol-2-yl)methanone], the AC50 was under 0.5 µM. With `CC(C)c1nnc(C(=O)N2CCc3[nH]cnc3[C@@H]2c2cc3cccc(Cl)n3n2)o1` [Example 1489, (R)-(4-(7-chloropyrazolo [1,5-a]pyridin-2-yl)-6,7-dihydro-1H-imidazo[4,5-c]pyridin-5(4H)-yl)(5-isopropyl-1,3,4-oxadiazol-2-yl)methanone] the AC50 was 1 to 5 µM. Work on `Cc1cccc2cc([C@@H]3c4nc[nH]c4CCN3C(=O)c3nnc(C(C)C)o3)nn12` [Example 1490, (S)-(5-isopropyl-1,3,4-oxadiazol-2-yl)(4-(7-methylpyrazolo[1,5-a]pyridin-2-yl)-6,7-dihydro-1H-imidazo[4,5-c]pyridin-5(4H)-yl)methanone] yielded an AC50 of 0.5 to 1 µM.
